Results as given in patent US7635693B2, “Methods for preventing and treating cancer using N-thiolated β-lactam compounds and analogs thereof” (University of South Florida, priority 2002, dated 2009).
Like-named read-outs stand apart in the source and are kept apart here.

Experiments:
[1] = system: PARP; assay: PARP cleavage, Western blot, Jurkat T cells; assay type: cell-based, human
Description: A library of β-lactam analogs was screened for their ability to induce apoptosis. […] This is followed by preparation of cell lysates and measurement of apoptosis-specific caspase-3 activation (by cell-free caspase-3 activity assay) and PARP cleavage (by Western blotting).

[2] = system: caspase-3; assay: Cell-free caspase-3 activity assay on extracts of treated Jurkat T cells; assay type: cell-based, human
Procedure: Briefly, a prepared protein extract (20 μg) is incubated in a buffer containing 50 mM Tris/pH 8.0 along with each respective caspase substrate at 20 μM in a 96 well plate. The reaction mixture is incubated at 37° C. for 2 h.
A library of β-lactam analogs was screened for their ability to induce apoptosis. The screening procedure is accomplished by treating human Jurkat T cells with each compound at 50 μM for 8 hours. This is followed by preparation of cell lysates and measurement of apoptosis-specific caspase-3 activation (by cell-free caspase-3 activity assay) and PARP cleavage (by Western blotting).

[3] = system: Jurkat T cells; assay: Flow cytometry cell cycle distribution and sub-G1 population, Jurkat T cells; assay type: cell-based, human; conditions: 50 μM
Procedure: Cell Death Differ 5:1062-75. At each time point, cells are harvested, counted, and washed twice with PBS. Cells (5×10^6) are suspended in 0.5 ml PBS, fixed in 5 ml of 70% ethanol for at least 2 h at −20° C., centrifuged, resuspended again in 1 ml of propidium iodide staining solution (50 μg propidium iodide, 100 units RNase A and 1 mg glucose per ml PBS), and incubated at room temperature for 30 minutes. The cells are then analyzed with FACScan (Becton Dickinson Immunocytometry, CA), ModFit LT and WinMDI V.2.8 cell cycle analysis software (Verity Software; Topsham, Me.). The cell cycle distribution is shown as the percentage of cells containing G1, S, G2, and M DNA judged by propidium iodide staining. The apoptotic population is determined as the percentage of cells with sub-G1 (<G1) DNA content.

[4] = system: PARP; conditions: YT cells
Procedure: Human Jurkat T cells and human prostate cancer LNCaP cells were cultured in RPMI 1640 medium, supplemented with 10% fetal bovine serum, 100 units/ml penicillin, and 100 μg/ml streptomycin. Human YT cells were cultured in RPMI 1640 medium supplemented with 1 mM MEM sodium pyruvate solution, 0.1 mM MEM non-essential amino acids solution, 10% fetal bovine serum, 100 units/ml penicillin, and 100 μg/ml streptomycin. All cell lines were maintained at 37° C. in a humidified incubator with an atmosphere of 5% CO2. […] Briefly, cells were harvested, washed with PBS and homogenized in a lysis buffer (50 mM Tris-HCl, pH 8.0, 5 mM EDTA, 150 mM NaCl, 0.5% NP-40, 0.5 mM phenylmethylsulfonyl fluoride, and 0.5 mM dithiothreitol) for 30 min at 4° C. Afterwards, the lysates were centrifuged at 12000×g for 15 min at 4° C. and the supernatants collected as whole-cell extracts. Equal amounts of protein extract (60 μg) were resolved by SDS-polyacrylamide gel electrophoresis and transferred to a nitrocellulose membrane (Schleicher & Schuell, Keene, N. H.) using a Semi-Dry Transfer System (Bio-Rad, Hercules, Calif.). The enhanced chemiluminescence Western blot analysis was then performed using specific antibodies to the proteins of interest.

Compound: COC1C(=O)N(SC)C1c1ccccc1Cl (racemic) [lactam 1]
- PARP cleavage ([1]; 10 μM, 24 h): induced apoptosis-specific PARP cleavage fragment p85
- levels of PARP cleavage fragment p85 ([1]; 25 μM, 24 h): further increased
- time at which PARP cleavage was first detected ([1]; 30 μM): 3 h
- time at which PARP cleavage fragment p85 appears ([1]; 50 μM): 4 h
- PARP cleavage ([1]; 50 μM, 8 hours): greatest potency
- level of PARP cleavage relative to that by 50 μM of lactam 47 ([1]; 50 μM, 12 h): ~50%
- PARP degradation ([1]; 50 μM, 24 h): PARP degradation was further increased
- p85 PARP fragment ([1]; 8 hours, 20 μM): Low levels
- p85 PARP fragment ([1]; 8 hours, 50 μM): significantly increased
- intact PARP protein and p85 PARP fragment ([1]; 8 hours, 60 μM): almost complete degradation
- p85 PARP fragment ([1]; 8 hours, 30 and 40 μM): further increased
- time at which cell-free caspase-3 activity was first observed ([2]; 50 μM): 4 h
- caspase-3 activation ([2]; 50 μM, 8 hours): greatest potency
- increase of caspase-3 levels over untreated cells ([2]; 8 hours, 20 μM): 2 fold
- increase of caspase-3 levels over untreated cells ([2]; 8 hours, 30 μM): 3 fold
- increase of caspase-3 levels over untreated cells ([2]; 8 hours, 40 μM): 5 fold
- increase of caspase-3 levels over untreated cells ([2]; 8 hours, 50 μM): 11 fold
- apoptotic sub-G1 cell population ([3]; 2 to 4 hours): 2%
- increase in S phase population ([3]; 2 to 4 hours): 2-3%
- increase in S phase population ([3]; 6 to 12 hours): up to 13%
- sub-G1 population ([3]; 6 to 12 hours): 5-16%
- increase in S phase population ([3]; 5 hours): 21%
- sub-G1 apoptotic population ([3]; 5 hours): 14%
- sub-G1 population ([3]; 24 h): 30%
- increase in S population ([3]; 24 hour): 20%
- PARP cleavage ([4]; 30 μM, 3, 6, or 24 h): no PARP cleavage was observed
- PARP cleavage ([4]; at even 50 μM, 24 h): no PARP cleavage was detectable
